The record followed here is patent US20100190747A1, “Fused ring compound and use thereof” (priority 2009, published 2010).

SMILES strings stand for the structures.

T1 sequence (Q920R3 whole entry): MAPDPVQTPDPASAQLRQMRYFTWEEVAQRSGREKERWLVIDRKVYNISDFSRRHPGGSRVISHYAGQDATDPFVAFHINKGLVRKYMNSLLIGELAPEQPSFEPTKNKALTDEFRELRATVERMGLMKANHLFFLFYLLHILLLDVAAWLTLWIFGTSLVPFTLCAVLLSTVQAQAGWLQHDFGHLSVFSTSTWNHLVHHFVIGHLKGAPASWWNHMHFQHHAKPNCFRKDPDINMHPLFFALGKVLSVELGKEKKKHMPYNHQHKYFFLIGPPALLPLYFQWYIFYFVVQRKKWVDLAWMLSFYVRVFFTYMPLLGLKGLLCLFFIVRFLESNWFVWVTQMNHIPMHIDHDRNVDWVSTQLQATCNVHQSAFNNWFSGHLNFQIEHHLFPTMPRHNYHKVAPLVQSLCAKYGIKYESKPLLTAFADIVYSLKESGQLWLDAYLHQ

One assay addresses T1, delta-5-desaturase (Rattus norvegicus, UniProt Q920R3).
T1 construct: the microsomal fraction of a rat river (10 μl), which had been diluted to 3 mg/ml; from tissue; host or cells: rat liver microsomal fraction
The assay is described as follows: Inhibitory activity on delta-5-desaturase (rat liver microsomal fraction, 14C-eicosatrienoic acid, TLC). The assay is classed as biochemical. Particulars: test compound at 10 μM, room temperature, 120 minutes. An outline of the steps: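 Rat liver microsomes (3 mg/ml before addition) incubated with test compound at 10 μM, NADH, ATP, CoA and 14C-eicosatrienoic acid in phosphate buffer pH 7.4 with BSA and glutathione, 120 min at room temperature. Lipids saponified, extracted, separated by reverse-phase TLC and imaged; % inhibition reported.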
Background: Liver microsomes are a subcellular fraction often used to study metabolism.
For `CCSc1nc2cc[nH]c2c(=O)n1-c1ccc(OCC2CC2)c(Cl)c1` [Example 162, 3-[3-Chloro-4-(cyclopropylmethoxy)phenyl]-2-(ethylsulfanyl)-3,5-dihydro-4H-pyrrolo[3,2-d]pyrimidin-4-one], the inhibition at 10 µM came out at 103%.

`CSc1nc2[nH]ccc2c(=O)n1-c1ccc(OCC(F)(F)F)cc1` [Example 212, 2-(Methylsulfanyl)-3-[4-(2,2,2-trifluoroethoxy)phenyl]-3,7-dihydro-4H-pyrrolo[2,3-d]pyrimidin-4-one]: the inhibition at 10 µM worked out at 98%.

As to `Cn1ccc2c(=O)n(-c3ccc(OCC(F)(F)F)cc3)c(SCCCC(=O)NCCC#N)nc21` [Example 195], the inhibition at 10 µM turned out to be 101%.

For `CCSc1nc2[nH]ccc2c(=O)n1-c1ccc(OCC2CC2)cc1` [Example 208, 3-[4-(Cyclopropylmethoxy)phenyl]-2-(ethylsulfanyl)-3,7-dihydro-4H-pyrrolo[2,3-d]primidin-4-one], the inhibition at 10 µM is 100%.

Turning to `O=C1Cc2c(nc(Sc3ccc(F)cc3)n(-c3ccc(OCC(F)(F)F)cc3)c2=O)N1` [Example 336, 2-[(4-Fluorophenyl)sulfanyl]-3-[4-(2,2,2-trifluoroethoxy)phenyl]-5,7-dihydro-3H-pyrrolo[2,3-d]pyrimidine-4,6-dione], the inhibition at 10 µM stood at 101%.

Regarding `CC(C)OCCCSc1nc2cc[nH]c2c(=O)n1-c1ccc(OCC(F)(F)F)cc1` [Example 137, 2-{[3-(1-Methylethoxy)propyl]sulfanyl}-3-[4-(2,2,2-trifluoroethoxy)phenyl]-3,5-dihydro-4H-pyrrolo[3,2-d]pyrimidin-4-one], the inhibition at 10 µM is 99%.

Turning to `CCOc1ccc(-n2c(SCCCC(=O)NCCC#N)nc3cc[nH]c3c2=O)cc1` [Example 60, N-(2-cyanoethyl)-4-{[3-(4-ethoxyphenyl)-4-oxo-4,5-dihydro-3H-pyrrolo[3,2-d]pyrimidin-2-yl]sulfanyl}butanamide], the inhibition at 10 µM is 99%.

On to `O=C1Cc2c(nc(OC(CF)CF)n(-c3ccc(OCC(F)(F)F)cc3)c2=O)N1` [Example 338, 2-[2-Fluoro-1-(fluoromethyl)ethoxy]-3-[4-(2,2,2-trifluoroethoxy)phenyl]-5,7-dihydro-3H-pyrrolo[2,3-d]pyrimidine-4,6-dione], for which the inhibition at 10 µM amounted to 100%.

For `CC(C)(O)CSc1nc2c(c(=O)n1-c1ccc(OCC(F)(F)F)cc1)CC(=O)N2` [Example 315, 2-[(2-Hydroxy-2-methylpropyl)sulfanyl]-3-[4-(2,2,2-trifluoroethoxy)phenyl]-5,7-dihydro-3H-pyrrolo[2,3-d]pyrimidine-4,6-dione], the inhibition at 10 µM was 99%.

Take `CCc1c[nH]c2c(=O)n(-c3ccc(OCC(F)(F)F)cc3)c(SCCCC(=O)NCCC#N)nc12` [Example 171, N-(2-cyanoethyl)-4-({7-ethyl-4-oxo-3-[4-(2,2,2-trifluoroethoxy)phenyl]-4,5-dihydro-3H-pyrrolo[3,2-d]pyrimidin-2-yl}sulfanyl)butanamide]: the inhibition at 10 µM was determined as 98%.

Regarding `CCCCOc1ccc(-n2c(SCCCC(=O)NCCC#N)nc3cc[nH]c3c2=O)cc1` [Example 91, 4-{[3-(4-Butoxyphenyl)-4-oxo-4,5-dihydro-3H-pyrrolo[3,2-d]pyrimidin-2-yl]sulfanyl}-N-(2-cyanoethyl)butanamide], the inhibition at 10 µM is 100%.

As to `N#CC1(CSc2nc3c(c(=O)n2-c2ccc(OCC(F)(F)F)cc2)CC(=O)N3)CC1` [Example 339, 1-[({4,6-Dioxo-3-[4-(2,2,2-trifluoroethoxy)phenyl]-4,5,6,7-tetrahydro-3H-pyrrolo[2,3-d]pyrimidin-2-yl}sulfanyl)methyl]cyclopropanecarbonitrile], the inhibition at 10 µM was 100%.

`O=c1c2[nH]ccc2nc(SCCN2CCOCC2)n1-c1ccc(OCC(F)(F)F)cc1` [Example 111, 2-[(2-Morpholin-4-ylethyl)sulfanyl]-3-[4-(2,2,2-trifluoroethoxy)phenyl]-3,5-dihydro-4H-pyrrolo[3,2-d]pyrimidin-4-one]: the inhibition at 10 µM was 98%.

In the case of `CCSc1nc2[nH]c(Cl)cc2c(=O)n1-c1ccc(OCC(F)(F)F)cc1` [Example 231, 6-Chloro-2-(ethylsulfanyl)-3-[4-(2,2,2-trifluoroethoxy)phenyl]-3,7-dihydro-4H-pyrrolo[2,3-d]pyrimidin-4-one], the inhibition at 10 µM came to 101%.

Turning to `COCCOCCCSc1nc2cc[nH]c2c(=O)n1-c1ccc(OCC2CC2)cc1` [Example 141, 3-[4-(Cyclopropylmethoxy)phenyl]-2-{[3-(2-methoxyethoxy)propyl]sulfanyl}-3,5-dihydro-4H-pyrrolo[3,2-d]pyrimidin-4-one], the inhibition at 10 µM came to 100%.

As for `CC(C)CCOc1ccc(-n2c(SCCCC(=O)NCCC#N)nc3cc[nH]c3c2=O)cc1` [Example 113, N-(2-cyanoethyl)-4-({3-[4-(3-methylbutoxy)phenyl]-4-oxo-4,5-dihydro-3H-pyrrolo[3,2-d]pyrimidin-2-yl}sulfanyl)butanamide], the inhibition at 10 µM amounted to 102%.

Take `CCOc1nc2c(c(=O)n1-c1ccc(OCC(F)(F)C(F)(F)F)cc1)CC(=O)N2` [Example 277, 2-Ethoxy-3-[4-(2,2,3,3,3-pentafluoropropoxy)phenyl]-5,7-dihydro-3H-pyrrolo[2,3-d]pyrimidine-4,6-dione]: the inhibition at 10 µM worked out at 94%.

On to `COCCSc1nc2c(c(=O)n1-c1ccc(OCC(F)(F)F)cc1)CC(=O)N2` [Example 325, 2-[(2-Methoxyethyl)sulfanyl]-3-[4-(2,2,2-trifluoroethoxy)phenyl]-5,7-dihydro-3H-pyrrolo[2,3-d]pyrimidine-4,6-dione], for which the inhibition at 10 µM came to 105%.

Consider `O=C1Cc2c(nc(OCC(F)(F)F)n(-c3ccc(OCC(F)(F)C(F)(F)F)cc3)c2=O)N1` [Example 306, 3-[4-(2,2,3,3,3-Pentafluoropropoxy)phenyl]-2-(2,2,2-trifluoroethoxy)-5,7-dihydro-3H-pyrrolo[2,3-d]pyrimidine-4,6-dione], for which the inhibition at 10 µM was determined as 99%.

Take `CC(C)COc1nc2c(c(=O)n1-c1ccc(OCC(F)(F)F)cc1)CC(=O)N2` [Example 318, 2-(2-Methylpropoxy)-3-[4-(2,2,2-trifluoroethoxy)phenyl]-5,7-dihydro-3H-pyrrolo[2,3-d]pyrimidine-4,6-dione]: the inhibition at 10 µM came out at 103%.

In the case of `CCSc1nc2c(c(=O)n1-c1ccc(OCC(F)(F)C(F)(F)F)cc1)CC(=O)N2` [Example 269, 2-(Ethylsulfanyl)-3-[4-(2,2,3,3,3-pentafluoropropoxy)phenyl]-5,7-dihydro-3H-pyrrolo[2,3-d]pyrimidine-4,6-dione], the inhibition at 10 µM amounted to 99%.

For `CSc1nc2cc[nH]c2c(=O)n1-c1ccc(OCC(F)(F)F)cc1` [Example 121, 2-(Methylsulfanyl)-3-[4-(2,2,2-trifluoroethoxy)phenyl]-3,5-dihydro-4H-pyrrolo[3,2-d]pyrimidin-4-one], the inhibition at 10 µM was 100%.

`O=c1c2cc[nH]c2nc(OCC(F)(F)F)n1-c1ccc(OCC(F)(F)F)cc1` [Example 227, 2-(2,2,2-Trifluoroethoxy)-3-[4-(2,2,2-trifluoroethoxy)phenyl]-3,7-dihydro-4H-pyrrolo[2,3-d]pyrimidin-4-one]: the inhibition at 10 µM was 99%.

`CCOCCOCCSc1nc2cc[nH]c2c(=O)n1-c1ccc(OCC2CC2)c(Cl)c1` [Example 163, 3-[3-Chloro-4-(cyclopropylmethoxy)phenyl]-2-{[2-(2-ethoxyethoxy)ethyl]sulfanyl}-3,5-dihydro-4H-pyrrolo[3,2-d]pyrimidin-4-one]: the inhibition at 10 µM is 99%.

As for `CCSc1nc2[nH]c(Br)cc2c(=O)n1-c1ccc(OCC(F)(F)F)cc1` [Example 232, 6-Bromo-2-(ethylsulfanyl)-3-[4-(2,2,2-trifluoroethoxy)phenyl]-3,7-dihydro-4H-pyrrolo[2,3-d]pyrimidin-4-one], the inhibition at 10 µM came out at 96%.

As to `COCCOCCCSc1nc2[nH]ccc2c(=O)n1-c1ccc(OCC(F)(F)F)cc1` [Example 191, 2-{[3-(2-Methoxyethoxy)propyl]sulfanyl}-3-[4-(2,2,2-trifluoroethoxy)phenyl]-3,7-dihydro-4H-pyrrolo[2,3-d]pyrimidin-4-one], the inhibition at 10 µM came to 101%.

Consider `CCSc1nc2c(c(=O)n1-c1ccc(OCC(F)F)cc1)CC(=O)N2` [Example 270, 3-[4-(2,2-Difluoroethoxy)phenyl]-2-(ethylsulfanyl)-5,7-dihydro-3H-pyrrolo[2,3-d]pyrimidine-4,6-dione], for which the inhibition at 10 µM was 99%.

On to `CCSc1nc2c(c(=O)n1-c1ccc(OCC(F)(F)F)c(F)c1)CC(=O)N2` [Example 307, 2-(Ethylsulfanyl)-3-[3-fluoro-4-(2,2,2-trifluoroethoxy)phenyl]-5,7-dihydro-3H-pyrrolo[2,3-d]pyrimidine-4,6-dione], for which the inhibition at 10 µM worked out at 99%.

Turning to `CS(=O)(=O)CCCSc1nc2cc[nH]c2c(=O)n1-c1ccc(OCC2CC2)cc1` [Example 154, 3-[4-(Cyclopropylmethoxy)phenyl]-2-{[3-(methylsulfonyl)propyl]sulfanyl}-3,5-dihydro-4H-pyrrolo[3,2-d]pyrimidin-4-one], the inhibition at 10 µM was determined as 99%.

For the compound `O=c1c2cc[nH]c2nc(SCCO)n1-c1ccc(OCC(F)(F)F)cc1` [Example 214, 2-[(2-Hydroxyethyl)sulfanyl]-3-[4-(2,2,2-trifluoroethoxy)phenyl]-3,7-dihydro-4H-pyrrolo[2,3-d]pyrimidin-4-one], the inhibition at 10 µM came to 101%.

Regarding `CSc1nc2c(c(=O)n1-c1ccc(OCC(F)(F)C(F)(F)F)cc1)CC(=O)N2` [Example 303, 2-(Methylsulfanyl)-3-[4-(2,2,3,3,3-pentafluoropropoxy)phenyl]-5,7-dihydro-3H-pyrrolo[2,3-d]pyrimidine-4,6-dione], the inhibition at 10 µM amounted to 98%.

Staying with this assay, now noted: test compound at 10 μM, room temperature, 120 minutes, 10 µM.
Consider `O=c1c2cc[nH]c2nc(OCC2CC2)n1-c1ccc(OCC(F)(F)F)cc1` [Example 289, 2-(Cyclopropylmethoxy)-3-[4-(2,2,2-trifluoroethoxy)phenyl]-3,7-dihydro-4H-pyrrolo[2,3-d]pyrimidin-4-one], for which the “Inhibitory activity at 10 μM (%)” value is on record as 101%.

In general, inhibition refers to the change of the read-out against control, counted positive when it falls.
